This note sets out measurements from patent US10336762B2 (priority 2017, dated 2019).

The structures appear in SMILES notation.

One may read the IC50 as the concentration that inhibits the measured activity by half. The EC50 is the concentration giving half of the maximal effect.

One assay has as its target IRAK4 enzyme (Homo sapiens (Human), UniProt Q9NWZ3). The assay can be described thus: biochemical. The class given is biochemical. The following applies: IRAK4 enzyme, TR-FRET, 500 μM ATP. Background: In TR-FRET formats the signal depends on donor and acceptor labels being close together.
The next assay concerns TNFα. Put plainly: cells. It counts as cell-based, human. To be noted: Homo sapiens, Monocyte, LPS-stimulated human monocytes, TNFα by TR-FRET; read-out: EC50 TNF.

IRAK4 enzyme, sequence (Q9NWZ3 whole entry): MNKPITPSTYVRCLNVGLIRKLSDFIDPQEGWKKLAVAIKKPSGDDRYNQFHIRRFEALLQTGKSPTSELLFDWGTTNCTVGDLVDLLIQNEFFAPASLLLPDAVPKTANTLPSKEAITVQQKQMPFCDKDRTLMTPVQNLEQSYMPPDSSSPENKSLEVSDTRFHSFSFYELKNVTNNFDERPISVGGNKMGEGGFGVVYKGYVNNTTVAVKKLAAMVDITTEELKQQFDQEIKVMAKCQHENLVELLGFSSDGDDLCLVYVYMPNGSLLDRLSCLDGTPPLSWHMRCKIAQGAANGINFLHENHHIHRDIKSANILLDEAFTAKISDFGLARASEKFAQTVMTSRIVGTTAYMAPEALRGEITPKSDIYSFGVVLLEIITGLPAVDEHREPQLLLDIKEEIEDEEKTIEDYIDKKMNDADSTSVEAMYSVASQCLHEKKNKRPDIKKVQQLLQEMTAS

`CC(C)(O)[C@H](F)CNC(=O)c1cnc(-c2ccc3cc(C#N)cnn23)cc1Nc1cnc(N2CCNCC2)nc1` [Example 921, (R)-6-(3-cyanopyrrolo[1,2-b]pyridazin-7-yl)-N-(2-fluoro-3-hydroxy-3-methyl-butyl)-4-((2-(piperazin-1-yl)pyrimidin-5-yl)amino) nicotinamide] had an IC50 at IRAK4 enzyme of less than 1 nM. Besides, in the assay on TNFα, the EC50 came to 45 nM.

With `CC(C)(O)[C@H](F)CNC(=O)c1cnc(-c2ccc3cc(C#N)cnn23)cc1Nc1ccc(N2CC3CC(C2)O3)nc1` [Example 922, 4-((6-(6-oxa-3-azabicyclo[3.1.1]heptan-3-yl)pyridin-3-yl)amino)-6-(3-cyanopyrrolo[1,2-b]pyridazin-7-yl)-N-((R)-2-fluoro-3-hydroxy-3-methylbutyl)nicotinamide], the IC50 at IRAK4 enzyme was less than 1 nM. Moreover, in the assay with TNFα, the EC50 stood at 42 nM.

Compound `N#Cc1cnn2c(-c3cc(NC45CCC(O)(CC4)CC5)c(C(=O)NCC(=O)N4CCC4)cn3)ccc2c1` [Example 923, N-(2-(azetidin-1-yl)-2-oxoethyl)-6-(3-cyanopyrrolo[1,2-b]pyridazin-7-yl)-4-((4-hydroxybicyclo[2.2.2]octan-1-yl)amino) nicotinamide] displayed an IC50 at IRAK4 enzyme of less than 1 nM. In addition, the EC50 in the assay on TNFα came out at 52 nM.

Compound `CC1(C)CC1CNC(=O)c1cnc(-c2ccc3cc(C#N)cnn23)cc1NC12CCC(O)(CC1)CC2` (stereo not drawn) [Example 924, 6-(3-cyanopyrrolo[1,2-b]pyridazin-7-yl)-N-((2,2-dimethylcyclopropyl)methyl)-4-((4-hydroxy-bicyclo[2.2.2]octan-1-yl)amino)nicotinamide] yielded an IC50 against IRAK4 enzyme of 1 nM. In addition, in the assay with TNFα, the EC50 came out at 119 nM.

For the compound `Cn1cncc1CNC(=O)c1cnc(-c2ccc3cc(C#N)cnn23)cc1NC12CCC(O)(CC1)CC2` [Example 925, 6-(3-cyanopyrrolo[1,2-b]pyridazin-7-yl)-4-((4-hydroxybicyclo[2.2.2]octan-1-yl)amino)-N-((1-methyl-1H-imidazol-5-yl)methyl)nicotinamide], the IC50 against IRAK4 enzyme is 4 nM. In the assay on TNFα, the EC50 came out at 583 nM.

With `Cn1cc(CNC(=O)c2cnc(-c3ccc4cc(C#N)cnn34)cc2NC23CCC(O)(CC2)CC3)cn1` [Example 926, 6-(3-cyanopyrrolo[1,2-b]pyridazin-7-yl)-4-((4-hydroxybicyclo[2.2.2]octan-1-yl)amino)-N-((1-methyl-1H-pyrazol-4-yl)methyl)nicotinamide], the IC50 against IRAK4 enzyme stood at 2 nM. For the same compound, the EC50 with TNFα turned out to be 192 nM.

On to `CC(C)(O)[C@H](F)CNC(=O)c1cnc(-c2ccc3cc(C#N)cnn23)cc1NC1CC(CNC(=O)C2CCC2)C1` (stereo partly drawn) [Example 927, 6-(3-cyanopyrrolo[1,2-b]pyridazin-7-yl)-4-(((1r,3R)-3-(cyclobutanecarboxamido-methyl)cyclobutyl)amino)-N-((R)-2-fluoro-3-hydroxy-3-methylbutyl)nicotinamide], for which the IC50 against IRAK4 enzyme is less than 1 nM. Besides, the EC50 in the assay on TNFα turned out to be 22 nM.

The compound `Cn1ccnc1CNC(=O)c1cnc(-c2ccc3cc(C#N)cnn23)cc1NC12CCC(O)(CC1)CC2` [Example 928, 6-(3-cyanopyrrolo[1,2-b]pyridazin-7-yl)-4-((4-hydroxybicyclo[2.2.2]octan-1-yl)amino)-N-((1-methyl-1H-imidazol-2-yl)methyl)nicotinamide] yielded an IC50 against IRAK4 enzyme of 1 nM. The EC50 in the assay on TNFα amounted to 71 nM.

The compound `Cn1cnc(CNC(=O)c2cnc(-c3ccc4cc(C#N)cnn34)cc2NC23CCC(O)(CC2)CC3)c1` [Example 929, 6-(3-cyanopyrrolo[1,2-b]pyridazin-7-yl)-4-((4-hydroxybicyclo[2.2.2]octan-1-yl)amino)-N-((1-methyl-1H-imidazol-4-yl)methyl)nicotinamide] showed an IC50 against IRAK4 enzyme of 1 nM. Moreover, the EC50 with TNFα was found to be 126 nM.

With `N#Cc1cnn2c(-c3cc(NC45CCC(O)(CC4)CC5)c(C(=O)NCc4ccccn4)cn3)ccc2c1` [Example 930, 6-(3-cyanopyrrolo[1,2-b]pyridazin-7-yl)-4-((4-hydroxybicyclo[2.2.2]octan-1-yl)amino)-N-(pyridin-2-ylmethyl)nicotinamide], at IRAK4 enzyme, half-maximal inhibition (IC50) was put at 2 nM. In addition, the EC50 in the assay on TNFα was determined as 147 nM.

At IRAK4 enzyme, `N#Cc1cnn2c(-c3cc(NC45CCC(O)(CC4)CC5)c(C(=O)NCc4cccnc4)cn3)ccc2c1` [Example 931, 6-(3-cyanopyrrolo[1,2-b]pyridazin-7-yl)-4-((4-hydroxybicyclo[2.2.2]octan-1-yl)amino)-N-(pyridin-3-ylmethyl) nicotinamide] had an IC50 of 3 nM. Further, the EC50 in the assay with TNFα amounted to 163 nM.

Consider `N#Cc1cnn2c(-c3cc(NC45CCC(O)(CC4)CC5)c(C(=O)NCc4ccncc4)cn3)ccc2c1` [Example 932, 6-(3-cyanopyrrolo[1,2-b]pyridazin-7-yl)-4-((4-hydroxybicyclo[2.2.2]octan-1-yl)amino)-N-(pyridin-4-ylmethyl) nicotinamide], for which the IC50 against IRAK4 enzyme stood at 3 nM. In addition, in the assay with TNFα, the EC50 was determined as 168 nM.

In the case of `N#Cc1cnn2c(-c3cc(NC45CCC(O)(CC4)CC5)c(C(=O)NCc4ncccn4)cn3)ccc2c1` [Example 933, 6-(3-cyanopyrrolo[1,2-b]pyridazin-7-yl)-4-((4-hydroxybicyclo[2.2.2]octan-1-yl)amino)-N-(pyrimidin-2-ylmethyl)nicotinamide], on IRAK4 enzyme, the concentration for half-maximal inhibition (IC50) stood at 4 nM. In addition, in the assay on TNFα, the EC50 was 269 nM.

On IRAK4 enzyme, `Cn1nccc1CNC(=O)c1cnc(-c2ccc3cc(C#N)cnn23)cc1NC12CCC(O)(CC1)CC2` [Example 934, 6-(3-cyanopyrrolo[1,2-b]pyridazin-7-yl)-4-((4-hydroxybicyclo[2.2.2]octan-1-yl)amino)-N-((1-methyl-1H-pyrazol-5-yl)methyl)nicotinamide] came in with an IC50 of 3 nM. The EC50 with TNFα is 271 nM.

At IRAK4 enzyme, `Cn1ccc(CNC(=O)c2cnc(-c3ccc4cc(C#N)cnn34)cc2NC23CCC(O)(CC2)CC3)n1` [Example 935, 6-(3-cyanopyrrolo[1,2-b]pyridazin-7-yl)-4-((4-hydroxybicyclo[2.2.2]octan-1-yl)amino)-N-((1-methyl-1H-pyrazol-3-yl)methyl)nicotinamide] displayed an IC50 of 2 nM. Moreover, in the assay on TNFα, the EC50 worked out at 153 nM.

`CC(C)(O)[C@H](F)CNC(=O)c1cnc(-c2ccc3cc(C#N)cnn23)cc1-n1cc(-c2cnc(N)cn2)cn1` [Example 936, (R)-4-(4-(5-aminopyrazin-2-yl)-1H-pyrazol-1-yl)-6-(3-cyanopyrrolo[1,2-b]pyridazin-7-yl)-N-(2-fluoro-3-hydroxy-3-methylbutyl) nicotinamide]: the IC50 against IRAK4 enzyme came out at 147 nM. Also, in the assay with TNFα, the EC50 was greater than 10000 nM.

In the case of `CC(C)(O)[C@H](F)CNC(=O)c1cnc(-c2ccc3cc(C#N)cnn23)cc1N[C@H]1C[C@H](CNC(=O)C23CC(C2)C3)C1` [Example 937, 4-(((1r,3R)-3-((bicyclo[1.1.1]pentane-1-carboxamido)methyl)cyclobutyl)amino)-6-(3-cyanopyrrolo[1,2-b]pyridazin-7-yl)-N-((R)-2-fluoro-3-hydroxy-3-methylbutyl)nicotinamide], the IC50 on IRAK4 enzyme came to 2 nM. In the assay with TNFα, the EC50 came to 133 nM.

For the compound `CC(C)C(=O)NC[C@H]1C[C@H](Nc2cc(-c3ccc4cc(C#N)cnn34)ncc2C(=O)NC[C@@H](F)C(C)(C)O)C1` [Example 938, 6-(3-cyanopyrrolo[1,2-b]pyridazin-7-yl)-N-((R)-2-fluoro-3-hydroxy-3-methylbutyl)-4-(((1r,3R)-3-(isobutyramidomethyl)cyclobutyl)amino) nicotinamide], at IRAK4 enzyme, the IC50 is 1 nM. Besides, the EC50 in the assay on TNFα turned out to be 68 nM.

With `CC(C)(O)[C@H](F)CNC(=O)c1cnc(-c2ccc3cc(C#N)cnn23)cc1-n1cc(-c2ccc(N)cn2)cn1` [Example 939, (R)-4-(4-(5-aminopyridin-2-yl)-1H-pyrazol-1-yl)-6-(3-cyanopyrrolo[1,2-b]pyridazin-7-yl)-N-(2-fluoro-3-hydroxy-3-methyl-butyl)nicotinamide], half-maximal inhibition on IRAK4 enzyme (IC50) was put at 642 nM. Further, the EC50 in the assay with TNFα was greater than 10000 nM.

`CC(C)(O)[C@H](F)CNC(=O)c1cnc(-c2ccc3cc(C#N)cnn23)cc1N[C@H]1C[C@H](CNC(=O)C2CC(F)(F)C2)C1` [Example 940, 6-(3-cyanopyrrolo[1,2-b]pyridazin-7-yl)-4-(((1r,3R)-3-((3,3-difluorocyclobutane-1-carboxamido)methyl)cyclobutyl)amino)-N-((R)-2-fluoro-3-hydroxy-3-methylbutyl)nicotinamide] gave an IC50 on IRAK4 enzyme of less than 1 nM. Moreover, the EC50 with TNFα is 44 nM.

The compound `CC(C)(O)[C@H](F)CNC(=O)c1cnc(-c2ccc3cc(C#N)cnn23)cc1N[C@H]1C[C@H](CNC(=O)C2CC2F)C1` (stereo partly drawn) [Example 941, 6-(3-cyanopyrrolo[1,2-b]pyridazin-7-yl)-N-((R)-2-fluoro-3-hydroxy-3-methylbutyl)-4-(((1R,3R)-3-(((1R,2R)-2-fluorocyclo-propane-1-carboxamido)methyl)cyclobutyl)amino) nicotinamide] registered an IC50 against IRAK4 enzyme of less than 1 nM. Further, the EC50 in the assay on TNFα is 19 nM.

Take `C[C@H](NC(=O)c1cnc(-c2ccc3cc(C#N)cnn23)cc1NC12CCC(O)(CC1)CC2)C(=O)N1CC(F)(F)C1` [Example 942, (S)-6-(3-cyanopyrrolo[1,2-b]pyridazin-7-yl)-N-(1-(3,3-difluoroazetidin-1-yl)-1-oxopropan-2-yl)-4-((4-hydroxybicyclo[2.2.2]octan-1-yl)amino) nicotinamide]: at IRAK4 enzyme, the IC50 was determined as 8 nM. Besides, in the assay with TNFα, the EC50 came out at 587 nM.

With `C[C@H](NC(=O)c1cnc(-c2ccc3cc(C#N)cnn23)cc1NC12CCC(O)(CC1)CC2)C(=O)N1CCOCC1` [Example 943, (S)-6-(3-cyano-pyrrolo[1,2-b]pyridazin-7-yl)-4-((4-hydroxy-bicyclo[2.2.2]octan-1-yl)amino)-N-(1-morpholino-1-oxopropan-2-yl) nicotinamide], the midpoint of inhibition against IRAK4 enzyme, the IC50, lay at 35 nM. For the same compound, in the assay on TNFα, the EC50 came out at 836 nM.

Take `N#Cc1cnn2c(-c3cc(NC45CCC(O)(CC4)CC5)c(C(=O)NCC(=O)N4CCC(O)C4)cn3)ccc2c1` [Example 944, (S)-6-(3-cyano-pyrrolo[1,2-b]pyridazin-7-yl)-4-((4-hydroxy-bicyclo[2.2.2]octan-1-yl)amino)-N-(2-(3-hydroxypyrrolidin-1-yl)-2-oxoethyl) nicotinamide]: on IRAK4 enzyme, the IC50 was less than 1 nM. Moreover, the EC50 in the assay with TNFα amounted to 209 nM.
